Broadly, the IC50 is the point on the concentration scale where inhibition reaches its midpoint. Higher therefore signals weaker potency in that assay.

Assay [1] deals with T1, Hyaluronidase (HAase).
T1 construct: gene SPAM1; ovine testis or bacterial possible; human HYAL1 2PE4 was only the docking model
In words: modified Morgan-Elson colorimetric assay (DMAB, […] nm). In kind it is biochemical. The settings on record: hyaluronic acid sodium 0.5 mg mL^−1; HAase 500 U mL^−1; CaCl2 12.5 mM; 37 °C.

Assay [2] has as its system T1, Hyaluronidase (HAase). Nature of the assay: intrinsic fluorescence quenching, excitation […] nm. The format is binding. The settings on record: 293 K; sodium phosphate buffer pH 7.4; HAase 2.0 × 10^−6 mol L^−1; n 1.0623; double-log.

The compound `O=C1C[C@@H](c2ccc(O)cc2)Oc2cc(O)ccc21` [liquiritigenin] yielded an IC50 on Hyaluronidase (HAase) [1] of 680 ± 43 µM. For the same compound, the “K a” value with Hyaluronidase (HAase) [2] amounted to 39537 L/mol.

These data come from publication PMC4899609, “Spectroscopic and Docking Studies on the Binding of Liquiritigenin with Hyaluronidase for Antiallergic Mechanism” (Scientifica, 2016).
